According to patent publication US20220313658A1, “YAP Inhibition for Wound Healing” (The Board of Trustees of the Leland Stanford Junior …, priority 2019, published 2022):

Legend:
[1] = tested on: mechanically loaded dorsal incisional wounds; assay: Mechanical loading of dorsal incisional wounds with Verteporfin treatment; type: in vivo, mouse
Protocol: 20 mm-long linear wounds were produced on the dorsum of P60 En-1^Cre-ERT;Ai6 mice and then closed with sutures. On POD 4, a loading device (constructed from 22 mm expansion screws and Luhr plate supports) was secured over each wound with adhesive and simple interrupted sutures. For mice receiving mechanotransduction signaling inhibitor, 30 μL of Verteporfin (1 mg/mL) was injected along the suture line both at POD 0 and POD 4; PBS was injected into wounds for vehicle controls. Device tension was increased by distracting expansion 2 mm every 2 days for 10 days total. Mice with unexpanded devices served as sham surgery controls. On POD 14, wounds were harvested and processed for histology to characterize the effects of increased wound tension on activation of ENFs to scarring pEPFs. In FIG. 2, G-I, a minimum of 4 mice was used for each experimental group.
Tissues were fixed in 2% paraformaldehyde for 16 h at 4° C. Samples were prepared for embedding by soaking in 30% sucrose in PBS for 1 week at 4° C. Samples were then removed from the sucrose solution, and tissue blocks were prepared by embedding in Tissue Tek U.C.T. (Sakura Finetek) under dry ice to achieve rapid freezing. Frozen blocks were mounted on a Thermo Scientific CryoStar NX70 cryostat, and 10 μm-thick sections were transferred to SuperfrostfPlus adhesive slides (Fisher). For hematoxylin and eosin staining, standard protocols were used with no modifications. For immunofluorescent staining, slides were blocked for 1 hr with Power Block (Biogenex) prior to addition of the following primary antibodies: Abeam ab34710 (anti-collagen type I), Abeam ab28340 (anti-CD26), Invitrogen MA5-15915 (anti-Dlk1), Abeam ab51317 (anti-Scat), Abeam ab5694 (anti-α-SMA), Santa Cruz Biotechnology sc-101199 (anti-YAP), Abeam ab7800 (anti-CK14), and Abeam ab52625 (anti-CK19). Slides were then incubated for 1 h with Alexa Fluor 568 or Alexa Fluor 647-conjugated anti-rabbit, anti-rat, or anti-mouse antibodies (Invitrogen). Finally, slides were mounted in Fluoromount-G mounting solution with DAPI (Thermo Fisher). Brightfield images were acquired with a Leica DMI4000B microscope, while fluorescent images were acquired with a Leica DM6000 SP5 upright confocal microscope.
Then, whether mechanical tension similarly promoted ENF-to-EPF transition in vivo was assessed. […]

ENFs = assay: Bulk RNA-seq of ENFs cultured on TCPS in the presence of Verteporfin; type: cell-based, mouse
Protocol: Total RNA was harvested by lysing cells in Trizol reagent (Invitrogen), RNA extraction and library preparation was performed by the Stanford Functional Genomics facility using standard Qiagen kits and protocols. Directional RNA-Sal libraries were analyzed with an Agilent Bioanalyzer to ensure successful library creation, and then sequenced with the Illumina HiSeq 4000 System (2×75 bp, 150 cycles), Paired-end reads were mapped to the mouse genome reference sequence mm10 using the STAR aligner. […] It is common practice to normalize read counts by the total number of reads and the length of each transcript, yielding reads per kilobase mapped (RPKM) values. However, such analysis may be skewed towards a few highly expressed genes that dominate the total lane count. Thus, instead, counts were normalized by a size factor, calculated by taking the median of the ratios of observed counts to those of a pseudo-reference sample (whose counts are the geometric means of each gene across all samples). For hypothesis testing of differential gene transcription, the read counts were modeled according to a negative binomial distribution, with the variance considered as the sum of the shot noise term and a locally regressed non-parametric smooth function of the mean. […] Raw RNA-seq data can be accessed at the following Github repository: https://github.com/[…]. […] Ranked whole genome enrichment analyses in FIGS. 6 and 7 were performed using GSEA software developed by the Broad Institute with nominal p value and false discovery rate (FDR) cutoffs of 0.01 and 0.25, respectively. All g.Profiler and GSEA results are available in the following Github repository: https://github.com/[…]. In order to ascertain whether in vitro En-1 activation involved a shift toward a fibrotic transcriptomic profile, bulk ENFs were isolated from En-1^Cre;R26^mTmG mice and grew these cells on TCPS for 2 days (at which point ENFs remain single cells), 7 days (when ENFs form colonies), or 14 days (when ENFs activate En-1) (experimental schematic in FIG. 3, A). Cultured cells were then subjected to bulk RNA-seq analysis. Next, to assess if postnatal En-1 activation was dependent on mechanotransduction signaling, ENFs cultured on TCPS were grown in the presence of Verteporfin. After 14 days in culture, treated cells were subjected to RNA-seq. […] GO term analysis in g.

[2] = ENFs on TCPS, 14 days with Verteporfin

Substance: verteporfin
- Gross appearance of mechanically loaded wounds ([1]; 30 μL of 1 mg/mL injected at POD 0 and POD 4, harvested POD 14): grossly resembled control (non-mechanically loaded) wounds
- Number of pEPFs (GFP+ cells) in wounds ([1]; compared to mechanically loaded, non-Verteporfin treated wounds, POD 14): significantly fewer pEPFs
- YAP and a-SMA expression (immunofluorescent staining) ([1]; compared to untreated mechanically loaded wounds, POD 14): decreased YAP and a-SMA expression
- Number of YAP+ cells in wounds ([1]; mechanically loaded wounds, POD 14): significantly fewer YAP+ cells
- Expression of ECM / pro-fibrotic matrix genes (ENFs; [2]): reduced expression of various ECM genes
- GO term enrichment (g.Profiler) (ENFs; [2]): decreased enrichment of ECM-related terms and relatively higher muscle development-related terms
- Transcriptomic shift over time in culture (RNA-seq) (ENFs; ENFs on TCPS, 14 days with Verteporfin, vs untreated cells): attenuated the transcriptomic shift observed in untreated cells
- Expression of ECM / pro-fibrotic matrix genes (ENFs; ENFs on TCPS, 14 days with Verteporfin, listed as Vert): mitigated
- Principal component analysis of RNA-seq data (ENFs; ENFs treated with Verteporfin for 14 days): more closely resembled untreated cells that had only been in culture for 2 days
